According to ChEMBL document CHEMBL1201862, “PubChem BioAssay data set” (2004):
Calls of active or inactive are those of the source.

Assays:
Cytochrome P450 2C19 = Cytochrome P450 2C19 (Homo sapiens, UniProt P33261); assay: Cytochrome panel assay with activity outcomes. Panel member name: p450-cyp2c19 Compounds with AC50 equal or less than 10 uM are considered active; assay type: functional
[1] = inhibitors of intracellular T. cruzi replication, confirmation, NIH3T3 host cells, beta-gal luminescence (AID 2044); assay type: functional, cell-based;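 also: intracellular parasites grown in NIH/3T3 mouse fibroblasts as host cells; luminescent beta-galactosidase reporter signal from transgenic T. cruzi replicating inside host cells; inhibitors lower the luminescence signal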
[2] = cytotoxicity toward NIH3T3 fibroblasts, dose response, counter-screen, cell-based, ATP luminescence, mouse fibroblasts (AID 2010); assay type: functional;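 also: cells exposed to compound for about 90 hours before reading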
Cytochrome P450 3A4 = Cytochrome P450 3A4 (Homo sapiens, UniProt P08684);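 also: CYP3A4 tested as one member of a cytochrome P450 panel screen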
Cytochrome P450 1A2 = target: T1, Cytochrome P450 1A2 (Homo sapiens, UniProt P05177);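 also: PubChem cytochrome P450 panel assay, CYP1A2 panel member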
T1 sequence (P05177 whole entry): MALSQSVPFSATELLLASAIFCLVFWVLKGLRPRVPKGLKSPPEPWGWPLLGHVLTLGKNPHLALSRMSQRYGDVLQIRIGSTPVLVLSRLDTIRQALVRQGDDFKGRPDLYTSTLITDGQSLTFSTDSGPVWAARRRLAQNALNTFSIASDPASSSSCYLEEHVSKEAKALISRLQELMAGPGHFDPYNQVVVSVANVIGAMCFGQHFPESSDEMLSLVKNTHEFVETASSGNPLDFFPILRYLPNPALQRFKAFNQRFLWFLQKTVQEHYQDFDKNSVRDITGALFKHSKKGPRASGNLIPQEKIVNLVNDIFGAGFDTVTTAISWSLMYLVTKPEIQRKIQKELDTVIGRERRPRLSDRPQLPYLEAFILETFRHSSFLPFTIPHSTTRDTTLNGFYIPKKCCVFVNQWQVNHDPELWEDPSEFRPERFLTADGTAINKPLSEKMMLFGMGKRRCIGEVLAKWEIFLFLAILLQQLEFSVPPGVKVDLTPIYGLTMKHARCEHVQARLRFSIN

[3] = Luminescence Cell-Based Dose Retest to Confirm Inhibitors of Cancer Stem Cells. [Related pubchem assays (depositor defined):AID2717, AID2721]; assay type: functional; conditions: Homo sapiens
[4] = tested on: Streptococcus sp. 'group A'; assay: growth inhibition of control SK(-) GAS strain, dose response, counter-screen for streptokinase expression inhibitor project, luminescence, kanamycin, BacTiterGlo, confirmation (AID 1900); assay type: functional, organism-based
Streptococcus = assay: Group A Streptococcus viability loss, dose response, counter-screen for streptokinase expression inhibitor project, luminescence, BacTiterGlo (AID 1915); assay type: functional, organism-based;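 also: potency for reduction of bacterial viability or growth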

Chain of Cytochrome P450 3A4 (P08684 whole entry): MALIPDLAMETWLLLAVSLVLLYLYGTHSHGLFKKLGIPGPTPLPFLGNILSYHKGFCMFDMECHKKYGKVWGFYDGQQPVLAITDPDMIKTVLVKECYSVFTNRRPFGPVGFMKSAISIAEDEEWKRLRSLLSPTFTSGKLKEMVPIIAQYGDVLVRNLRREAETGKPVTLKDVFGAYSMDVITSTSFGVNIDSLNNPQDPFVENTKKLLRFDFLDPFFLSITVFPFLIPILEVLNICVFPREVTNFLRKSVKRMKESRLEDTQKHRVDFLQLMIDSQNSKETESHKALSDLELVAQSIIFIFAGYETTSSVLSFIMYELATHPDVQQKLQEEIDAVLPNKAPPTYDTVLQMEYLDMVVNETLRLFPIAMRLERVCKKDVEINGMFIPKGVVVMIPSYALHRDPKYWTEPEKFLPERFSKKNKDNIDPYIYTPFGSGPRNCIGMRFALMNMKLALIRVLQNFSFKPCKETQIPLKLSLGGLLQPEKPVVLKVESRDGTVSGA
Chain of Cytochrome P450 2C19 (P33261 whole entry): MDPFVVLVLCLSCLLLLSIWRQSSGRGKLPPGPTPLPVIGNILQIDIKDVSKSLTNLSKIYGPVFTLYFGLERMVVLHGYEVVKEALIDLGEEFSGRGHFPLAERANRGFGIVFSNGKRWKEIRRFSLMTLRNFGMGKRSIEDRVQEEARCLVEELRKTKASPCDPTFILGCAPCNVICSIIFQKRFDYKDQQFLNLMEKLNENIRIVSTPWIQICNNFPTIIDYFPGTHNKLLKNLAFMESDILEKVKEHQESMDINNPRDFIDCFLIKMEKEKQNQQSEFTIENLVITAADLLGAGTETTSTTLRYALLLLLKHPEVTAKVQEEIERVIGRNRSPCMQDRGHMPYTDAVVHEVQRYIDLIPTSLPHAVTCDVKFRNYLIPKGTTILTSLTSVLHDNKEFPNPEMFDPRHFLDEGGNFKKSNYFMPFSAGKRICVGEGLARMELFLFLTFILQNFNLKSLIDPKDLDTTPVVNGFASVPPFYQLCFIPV

SMILES: CCn1c(SCC(=O)Nc2sc3c(c2C#N)CCC(C(C)(C)C)C3)nnc1-c1ccco1 (stereo unspecified)
- AC50 (Cytochrome P450 2C19; read-out: AC50): 20 µM (inconclusive)

SMILES: Cc1cccc(CNc2ncnc3ccc(-c4cccnc4)cc23)c1
- AC50 (Cytochrome P450 2C19; read-out: AC50): 39.8 µM (inconclusive)

SMILES: COc1cccc(CC2(CO)CCCN(Cc3ccc(-c4ccco4)cc3)C2)c1 (stereo unspecified)
- EC50 [1]: 0.621 µM (active)
- EC50 [2]: > 60 µM (not active)

SMILES: CC1CCCC(NC(=O)C2CCN(S(=O)(=O)N3CCOCC3)CC2)C1C (stereo unspecified)
- AC50 (Cytochrome P450 3A4): 11.2 µM (inconclusive)

SMILES: O=C(Nc1cc(Sc2nc3ccccc3s2)cc([N+](=O)[O-])c1)c1ccccc1
- EC50 [1]: 1.42 µM (active)
- EC50 [2]: > 60 µM (not active)

SMILES: Cc1nc(NC(=O)c2ccccc2)sc1-c1csc(NCCc2ccccc2)n1
- EC50 [1]: 2.25 µM (active)
- EC50 [2]: > 60 µM (not active)

SMILES: N=C(C[C@@H](O)COc1ccccc1-c1ccccc1)N1CCCCC1
- AC50 (Cytochrome P450 1A2): 39.8 µM (inconclusive)

SMILES: N#Cc1cccc(NC(=O)N2CC3(CCN(C(=O)c4ccco4)CC3)C2)c1
- AC50 (Cytochrome P450 2C19; read-out: AC50): 2 µM (inconclusive)
- AC50 (Cytochrome P450 1A2): 25.1 µM (inconclusive)

SMILES: CN(Cc1ccco1)c1ccnc(-c2cccc(NS(C)(=O)=O)c2)n1
- AC50 (Cytochrome P450 2C19; read-out: AC50): 25.1 µM (inconclusive)

SMILES: CCN(CC)S(=O)(=O)c1ccc2c(c1)c(=O)c(C(=O)NCCN(C)CCc1ccccc1)cn2C
- EC50 [1]: 0.991 µM (active)
- EC50 [2]: > 60 µM (not active)

SMILES: C[C@@H]1c2ccccc2CN1CC1=NCCN1
- AC50 (Cytochrome P450 1A2): 31.6 µM (inconclusive)
- AC50 (Cytochrome P450 3A4): 31.6 µM (inconclusive)

SMILES: CN1CCN(C(=O)COc2ccc(S(=O)(=O)Nc3ccc(F)cc3)cc2)CC1
- EC50 [1]: 0.142 µM (active)
- EC50 [2]: > 60 µM (not active)

SMILES: O[C@@H](c1cc(-c2ccc(Cl)cc2)nc2ccccc12)[C@@H]1CCCCN1
- AC50 (Cytochrome P450 2C19; read-out: AC50): 6.31 µM (inconclusive)

SMILES: Cc1nnc(-c2cnn(-c3ccccc3)c2N)n1Cc1ccc(F)cc1
- AC50 (Cytochrome P450 3A4): 25.1 µM (inconclusive)

SMILES: CN1CCC(N(C)C(=O)c2ccccc2Nc2ccc(SC(F)F)cc2)CC1
- EC50 [1]: 0.384 µM (active)
- EC50 [2]: > 60 µM (not active)

SMILES: COc1ccc(Cl)cc1C(=O)Nn1cnc2ccccc2c1=O
- AC50 (Cytochrome P450 2C19; read-out: AC50): 11.2 µM (inconclusive)
- AC50 (Cytochrome P450 3A4): 25.1 µM (inconclusive)

SMILES: CN1CCN(CC(O)COCCOc2ccc(Br)cc2)CC1 (stereo unspecified)
- EC50 [1]: 0.542 µM (active)
- EC50 [2]: > 60 µM (not active)

SMILES: O=C(c1ccc2c(c1)OCO2)C1CCCN(C2CCN(CCc3ccccc3)CC2)C1 (stereo unspecified)
- EC50 [1]: 1.72 µM (active)
- EC50 [2]: > 60 µM (not active)

SMILES: Cn1cccc1C(=O)N1CCC[C@@]2(CCN(c3ccccn3)C2)C1
- AC50 (Cytochrome P450 2C19; read-out: AC50): 39.8 µM (inconclusive)
- AC50 (Cytochrome P450 1A2): 31.6 µM (inconclusive)
- AC50 (Cytochrome P450 3A4): 12.6 µM (inconclusive)

SMILES: Cc1ccc(-n2cc(CN(C)Cc3ncc[nH]3)c(-c3cccc(C)c3)n2)cc1
- EC50 [1]: 1.16 µM (active)
- EC50 [2]: > 60 µM (not active)

SMILES: CC(=O)Nc1ccc(S(=O)(=O)NC(CC(=O)NCCCN2CCOCC2)C(C)C)cc1 (stereo unspecified)
- AC50 (Cytochrome P450 3A4): 31.6 µM (inconclusive)

SMILES: CC(C)(C)C1CCC(OCC(O)CN2CCN(Cc3ccccc3)CC2)CC1 (stereo unspecified)
- EC50 [1]: 1.15 µM (active)
- EC50 [2]: > 60 µM (not active)

SMILES: O=c1c(-c2cccc(Cl)c2)nc2cncnc2n1Cc1ccc(F)cc1
- AC50 (Cytochrome P450 3A4): 15.8 µM (inconclusive)

SMILES: Cc1nc2cnc(Oc3cccc(Cl)c3)nc2n(CCc2ccccc2)c1=O
- AC50 (Cytochrome P450 2C19; read-out: AC50): 7.94 µM (inconclusive)

SMILES: CCCOc1ccc(/C=C/C(=O)Nc2ccc([N+](=O)[O-])cc2C)cc1OC
- AC50 (Cytochrome P450 3A4): 2.82 µM (inconclusive)

SMILES: NC(=O)CC(NC(=O)c1ccc(Br)cc1)c1ccc(NCc2ccc(F)cc2)c([N+](=O)[O-])c1 (stereo unspecified)
- AC50 [3]: 3.96 µM (active)

SMILES: C[C@@H]1/C=C\CC(=O)OC[C@H](C)C(=O)N[C@@H](C)C(=O)OC1
- AC50 (Cytochrome P450 2C19): inconclusive

SMILES: CC(=O)NCCNc1ncncc1-c1ccc(N(C)C)cc1
- AC50 (Cytochrome P450 2C19; read-out: AC50): 20 µM (inconclusive)

SMILES: COc1ccc(N=C(S)NC(NC(=O)c2cccc3ccccc23)C(Cl)(Cl)Cl)c([N+](=O)[O-])c1 (stereo unspecified)
- EC50 [1]: 2.25 µM (active)
- EC50 [2]: > 30 µM (not active)

SMILES: Cc1nn(-c2ccc(F)cc2)c2nc(N)c(C#N)c(-c3ccc(O)c(O)c3)c12
- EC50 [1]: 2.04 µM (active)
- EC50 [2]: 15.6 µM (active)

SMILES: Cn1c(=O)c2c(nc(C(=N)SCC(=O)O)n2C)n(C)c1=O
- AC50 (Cytochrome P450 2C19): inconclusive

SMILES: COc1ccc(CCn2c(SCCN3CCCCC3)nc3ccccc3c2=O)cc1OC
- EC50 [1]: 0.936 µM (active)
- EC50 [2]: > 60 µM (not active)

SMILES: O=S(=O)(NCc1cn2ccsc2n1)c1ccc(Oc2ccccc2)cc1
- AC50 (Cytochrome P450 1A2): 5.01 µM (inconclusive)

SMILES: N#C/C(=C(/O)c1ccc2c(c1)OCO2)c1nc2cc(C(F)(F)F)ccc2s1
- EC50 [4]: 2.89 µM (active)
- EC50 (Streptococcus): 4.33 µM (active)

SMILES: COCC(=O)Oc1c(S(=O)(=O)c2ccc(C)cc2)c(C)nn1-c1ccccc1
- AC50 (Cytochrome P450 2C19; read-out: AC50): 28.2 µM (inconclusive)
- AC50 (Cytochrome P450 1A2): 6.31 µM (inconclusive)

SMILES: Cc1nc2c(-c3ccccc3)cnn2c(O)c1Cc1ccccc1
- EC50 [1]: 2.22 µM (active)
- EC50 [2]: 14.6 µM (active)

SMILES: COc1ccc(Oc2nc3ccccc3nc2C(F)(F)F)cc1
- AC50 (Cytochrome P450 2C19; read-out: AC50): 3.16 µM (inconclusive)

SMILES: Clc1ccccc1-c1nc(NC2CCNCC2)c2ccccc2n1
- AC50 (Cytochrome P450 1A2): 20 µM (inconclusive)

SMILES: Cn1cccc1C(=O)N1CCC2(CCCN(Cc3ccncc3)C2)CC1
- AC50 (Cytochrome P450 2C19; read-out: AC50): 15.8 µM (inconclusive)
- AC50 (Cytochrome P450 1A2): 15.8 µM (inconclusive)
- AC50 (Cytochrome P450 3A4): 3.98 µM (inconclusive)

SMILES: O[C@@H]1[C@@H](OCc2ccccc2)OC[C@H](O)[C@@H]1O
- AC50 (Cytochrome P450 2C19): inconclusive

SMILES: Cc1cc(C)cc(Oc2ncnc3c2ncn3Cc2c(Cl)cccc2Cl)c1
- EC50 [1]: 1.95 µM (active)
- EC50 [2]: > 60 µM (not active)

SMILES: c1csc(CNCCCN2CCOCC2)c1
- AC50 (Cytochrome P450 2C19; read-out: AC50): 14.1 µM (inconclusive)

SMILES: CN1CCN(Cc2nc3cccc4c3c([n+]2[O-])-c2ccccc2-4)CC1
- AC50 (Cytochrome P450 3A4): 3.98 µM (inconclusive)

SMILES: CC(C)[C@@H]1CN[C@H](C(=O)O)[C@@H]1CC(=O)O
- AC50 (Cytochrome P450 1A2): 39.8 µM (inconclusive)

SMILES: O=C(NC1CCCN(CCc2ccccc2)C1)C1CCCC1 (stereo unspecified)
- EC50 [1]: 1.3 µM (active)
- EC50 [2]: > 60 µM (not active)

SMILES: COCC(=O)N1CCC2(CCN(Cc3ccncc3)CC2)CC1
- AC50 (Cytochrome P450 3A4): 15.8 µM (inconclusive)

SMILES: O[C@@H]1[C@@H]2c3cc4c(cc3CN3CCC(=C[C@@H]1O)[C@H]23)OCO4
- AC50 (Cytochrome P450 1A2): 15.8 µM (inconclusive)

SMILES: O=C(O)C(Cc1ccccc1)Cc1ccccc1
- AC50 (Cytochrome P450 1A2): 0.00501 µM (inconclusive)

SMILES: O=C(CCn1cnc(-c2ccccc2)c1-c1ccccc1)N/N=C/c1ccccc1O
- EC50 [4]: 0.47 µM (active)
- EC50 (Streptococcus): 2.13 µM (active)

SMILES: C=CCN1C[C@H](C)N([C@H](c2ccc(C(=O)N(CC)CC)cc2)c2cccc(O)c2)C[C@H]1C
- AC50 (Cytochrome P450 1A2): 39.8 µM (inconclusive)

SMILES: COc1ccccc1/C=C/C=N/N1CCN(Cc2cccc3ccccc23)CC1
- AC50 (Cytochrome P450 3A4): 12.6 µM (inconclusive)

SMILES: CC(=O)Nc1ccc(/C(C)=N/Nc2nc(Nc3ccccc3)nc(N3CCOCC3)n2)cc1
- EC50 [1]: 0.345 µM (active)
- EC50 [2]: 50.7 µM (active)

SMILES: O=C(N/N=C/c1cc([N+](=O)[O-])ccc1O)c1c[nH]c2ccccc12
- AC50 [3]: 6.85 µM (active)

SMILES: CC(C)CC(=O)O/N=C1\C(=O)N(Cc2ccc(Cl)cc2)c2ccc([N+](=O)[O-])cc21
- EC50 [1]: 4.6 µM (active)

SMILES: COc1ccc(/C=N\N=C(N)N)cc1
- EC50 [1]: 0.854 µM (active)
- EC50 [2]: > 60 µM (not active)

SMILES: CN(C)C(=N)NCCC[C@H](N)C(=O)O
- AC50 (Cytochrome P450 2C19): inconclusive

SMILES: CCOC(=O)Nc1ccc2c(c1)N(C(=O)CCN1CCOCC1)c1ccccc1S2 [MORICIZINE]
- EC50 [1]: 5.85 µM (active)
- EC50 [2]: > 60 µM (not active)
